SMILES strings stand for the structures.

This test deals with uricase from Micrococcus luteus NRRL B-8166. Nature of the test: Spectrophotometric uricase assay (disappearance of uric acid at 290 nm). The format is biochemical. Particulars: assay in 50 mM KPi buffer pH 8.6, 30° C; read-out: inhibition constant for oxonate. How it is done:
Uricase was assayed spectrophotometrically by following the disappearance of uric acid at 290 nm using a modification of the procedure described by Mahler et. al, J. Biol. Chem., p. 625, 216 (1955). Assay tubes contained 2.7 ml 50 mM KPi buffer pH 8.6, 0.1 mM sodium EDTA, 0.05 ml 6 mM urate, plus enzyme and water to give a final volume of 3.0 ml. Changes or additions to the assay mixtures were made when necessary. Tubes were incubated for 5 minutes at 30° C; the reaction was started by adding enzyme. Molar extinction coefficient for uric acid at 290 nm is 12,300. Activity was expressed in units of uricase activity, where a unit is that amount of enzyme which catalyzes the oxidation of one μmole of uric acid per minute at 30° C and pH 8.6.

Turning to `O=C(O)c1nc(=O)[nH]c(=O)[nH]1` [oxonate], the Ki was 4.5 µM.

The values are drawn from patent US4062731A, “Production of uricase from micrococcus luteus” (Eastman Kodak Company, priority 1976, dated 1977).
